Assay results published in patent US7135466B2 (Kirin Beer Kabushiki Kaisha, priority 1999, dated 2006).
Read-outs that look alike come from different tables or passages of the source.

How the values were obtained:
PDGF-Ra = target: T1, PDGF-Ra (Homo sapiens, UniProt P16234); assay: Inhibitory activity against PDGF-Ra phosphorylation by PDGF-AA stimulation using G292; assay type: cell-based; details: > means inhibition at indicated concentration not more than 50%, < and << not less than 50%; read-out: PDGF (E) IC50
T1 construct: host or cells: G-292 human osteosarcoma cells
Summary of the method: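 Read-out: A450 from a sandwich ELISA (PY-20 capture, anti-PDGF-Ra detection, peroxidase colour) of lysates from G-292 cells given compound for 1 hr at 37 °C before a 5 min challenge with PDGF-AA at 50 ng/ml.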

c-kit = target: T2, c-kit (Homo sapiens, UniProt P10721); assay: Inhibitory activity against c-kit autophosphorylation (MO7e cells, h-SCF); assay type: cell-based; details: for IC50: MO7e cells, read-out: c-kit IC50; for inhibition at 1 µM: Mo7e
T2 construct: MO7e (human megakaryocytic leukemia cell line) which had been arrested for 20 hr; endogenous in cells; host or cells: MO7e human megakaryocytic leukemia cell line
Summary of the method: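 First, human megakaryocytic leukemia MO7e cells arrested 20 hr receive compound for one hour. Second, SCF stimulation (50 ng/ml) runs 5 min, after which cells are solubilized. Third, tyrosine-phosphorylated c-kit in the lysate is quantified by sandwich ELISA with absorbance at 450 nm.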

[1] = tested on: neointima of balloon-injured left carotid artery; assay: Rat carotid balloon injury model; assay type: in vivo; details: po, 336 h, read-out: I/M ratio, inhibition (%)
Protocol: Rat Carotid Balloon Injury Model
Wistar male rats ([…]) were anesthetized with pentobarbital anesthesia, the right femoral region was incised from the rats, a Fogaty 2F catheter was inserted through the right femoral artery and was led to the left carotid artery, and abrasion was made three times with an expansion diameter of 2.5 mm.
The test compound was suspended in 1% cremophore, and the suspension was orally administered at 0.4 ml/100 g B.W. twice a day through an oral probe for rats for 2 weeks from the day before an operation. On the second week after the operation, the rats were sacrificed by ether. The left carotid artery was removed and was fixed in buffered formalin. Sliced preparations embedded in paraffin were stained with HE and were subjected to image analysis for the measurement of the neointima area (I) and media area (M) in the section of injured blood vessal. I/M was calculated as an index for the evaluation of drug efficacy.

human KDR = target: T3, human KDR (Homo sapiens, UniProt P35968); assay: Inhibitory activity against KDR phosphorylation (NIH 3T3 cells transfected with human KDR, VEGF); assay type: cell-based; details: VEGF 100 ng/ml
T3 construct: expressed in transfected cells; host or cells: NIH 3T3 cells
Protocol: Measurement of Inhibitory Activity Against KDR Phosphorylation
NIH 3T3 cells (Sawano A et al., Cell Growth & Differentiation, 7, 213–221 (1996)) prepared by transfection of human KDR were cultured in a DMEM medium containing 10% FBS (GIBCO BRL) within a 5% carbon dioxide incubator until 50 to 70% confluent. The harvested cells were inoculated into wells of a collagen-type one-coat 96-well flat-bottom plate, each containing the same medium, in an amount of 1.5×10^4 per well, followed by cultivation at 37° C. overnight. The medium was then replaced by a DMEM medium containing 0.1% FBS. A solution of a test compound in dimethyl sulfoxide was added to each well, and the cultivation was carried out at 37° C. for additional one hr. A human recombinant vascular endothelial growth factor (hereinafter abbreviated to “VEGF”) was added to a concentration of 100 ng/ml, and the stimulation of cells was carried out at 37° C. for 2 min. The medium was removed, the cells were washed with phosphate buffered saline (pH 7.4), and 50 μl of a solubilization buffer (20 mM HEPES (pH 7.4), 150 mM NaCl, 0.2% Triton X-100, 10% glycerol, 5 mM sodium orthovanadylate, 5 mM disodium ethylenediaminetetraacetate, and 2 mM Na4P2O7) was then added thereto. The mixture was shaken at 4° C. for 2 hr to prepare a cell extract.
An anti-phospho-tyrosine antibody (PY20; Transduction Laboratories) was immobilized on a microplate for ELISA (Maxisorp; NUNC), and the whole quantity of the cell extract was transferred to the wells, and the immobilized antibody was reacted with the phosphorylated protein at 4° C. overnight. After washing, an anti-KDR antibody (Santa Cruz) was allowed to react at room temperature for one hr, and, further, after washing, a peroxidase-labeled anti-rabbit Ig antibody (Amersham) was allowed to react at room temperature for one hr. After washing, a chromophoric substrate for peroxidase (Sumitomo Bakelite Co., Ltd.) was added thereto and was allowed to react at room temperature. After a suitable level of color development, a reaction termination solution was added to stop the reaction, and the absorbance at 450 nm was measured with a microplate reader. The KDR phosphorylation activity for each well was determined by presuming the absorbance with the addition of VEGF and without the addition of the medicament to be 100% KDR phosphorylation activity and the absorbance without the medicament and VEGF to be 0% KDR phosphorylation activity.
The concentration of the test compound was varied on several levels, the inhibition (%) of KDR phosphorylation was determined for each case, and the concentration of the test compound necessary for inhibiting 50% of KDR phosphorylation (IC50) was calculated.

PDGF-R = PDGF-R (Rattus norvegicus, UniProt Q05030); assay: PDGF-R autophosphorylation inhibition screening (dot plotting), vascular smooth muscle cells, PDGF-BB; assay type: cell-based; details: for inhibition at 1 µM: figure in parentheses in −( ), at 1000 nM, read-out: PDGF (D) inhibition (%) at 1000 nM; for IC50: PDGF (D) column
Protocol: PDGF-R Autophosphorylation Inhibition Screening (Dot Plotting)
Vascular smooth muscle cells (passage 5 to 10) collected from rat thoracic aorta by the explant method were planted at 8×10^3 cells per well in 96-well plates, subject to a serum starvation state, and 24 hr after the plantation then assayed.
A test compund was added, and the mixture was incubated at 37° C. for one hr. Thereafter, PDGF-BB was added to 50 ng/ml, and the mixture was incubated for 5 min, followed by washing with cold PBS. Lysate buffer (20 μl/well) was then added, SDS buffer ([…]) was added thereto, and 2 μl of the mixture was then spotted on a PDVF membrane.
Treatment was carried out with anti-mouse IgG which had been labelled with peroxidase after treatment with an anti-phosphotyrosine antibody, followed by development in an ECL color development kit (Amersham). Thereafter, the color intensity was quantitatively determined by image analysis.

[2] = figure in parentheses in −( ), at 1000 nM

T2 sequence (P10721 26-976): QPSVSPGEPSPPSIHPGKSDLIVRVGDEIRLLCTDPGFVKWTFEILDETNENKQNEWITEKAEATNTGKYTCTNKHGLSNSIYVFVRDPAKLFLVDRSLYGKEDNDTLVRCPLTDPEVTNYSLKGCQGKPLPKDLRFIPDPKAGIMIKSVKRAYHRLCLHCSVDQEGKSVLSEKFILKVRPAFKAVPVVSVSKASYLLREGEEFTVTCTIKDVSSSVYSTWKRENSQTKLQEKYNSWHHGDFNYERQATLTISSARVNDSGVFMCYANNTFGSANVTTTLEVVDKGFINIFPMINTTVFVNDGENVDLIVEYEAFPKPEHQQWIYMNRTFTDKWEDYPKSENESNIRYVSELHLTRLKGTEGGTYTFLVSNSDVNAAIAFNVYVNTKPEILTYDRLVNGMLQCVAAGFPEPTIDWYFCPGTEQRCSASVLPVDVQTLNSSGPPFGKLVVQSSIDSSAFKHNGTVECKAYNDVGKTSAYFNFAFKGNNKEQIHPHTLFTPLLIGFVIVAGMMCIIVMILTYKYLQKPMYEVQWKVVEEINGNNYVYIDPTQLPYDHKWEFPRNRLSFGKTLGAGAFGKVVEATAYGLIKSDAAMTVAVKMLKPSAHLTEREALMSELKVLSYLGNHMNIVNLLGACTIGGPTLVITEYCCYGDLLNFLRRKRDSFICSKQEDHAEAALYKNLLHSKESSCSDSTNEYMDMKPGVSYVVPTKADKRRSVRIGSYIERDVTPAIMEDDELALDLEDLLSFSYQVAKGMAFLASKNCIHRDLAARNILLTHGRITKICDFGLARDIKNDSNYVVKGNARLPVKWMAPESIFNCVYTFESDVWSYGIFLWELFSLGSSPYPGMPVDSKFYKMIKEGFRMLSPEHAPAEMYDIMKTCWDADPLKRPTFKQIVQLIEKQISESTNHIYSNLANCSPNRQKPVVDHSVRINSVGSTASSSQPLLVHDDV
Sequence of PDGF-R (Q05030 32-1097): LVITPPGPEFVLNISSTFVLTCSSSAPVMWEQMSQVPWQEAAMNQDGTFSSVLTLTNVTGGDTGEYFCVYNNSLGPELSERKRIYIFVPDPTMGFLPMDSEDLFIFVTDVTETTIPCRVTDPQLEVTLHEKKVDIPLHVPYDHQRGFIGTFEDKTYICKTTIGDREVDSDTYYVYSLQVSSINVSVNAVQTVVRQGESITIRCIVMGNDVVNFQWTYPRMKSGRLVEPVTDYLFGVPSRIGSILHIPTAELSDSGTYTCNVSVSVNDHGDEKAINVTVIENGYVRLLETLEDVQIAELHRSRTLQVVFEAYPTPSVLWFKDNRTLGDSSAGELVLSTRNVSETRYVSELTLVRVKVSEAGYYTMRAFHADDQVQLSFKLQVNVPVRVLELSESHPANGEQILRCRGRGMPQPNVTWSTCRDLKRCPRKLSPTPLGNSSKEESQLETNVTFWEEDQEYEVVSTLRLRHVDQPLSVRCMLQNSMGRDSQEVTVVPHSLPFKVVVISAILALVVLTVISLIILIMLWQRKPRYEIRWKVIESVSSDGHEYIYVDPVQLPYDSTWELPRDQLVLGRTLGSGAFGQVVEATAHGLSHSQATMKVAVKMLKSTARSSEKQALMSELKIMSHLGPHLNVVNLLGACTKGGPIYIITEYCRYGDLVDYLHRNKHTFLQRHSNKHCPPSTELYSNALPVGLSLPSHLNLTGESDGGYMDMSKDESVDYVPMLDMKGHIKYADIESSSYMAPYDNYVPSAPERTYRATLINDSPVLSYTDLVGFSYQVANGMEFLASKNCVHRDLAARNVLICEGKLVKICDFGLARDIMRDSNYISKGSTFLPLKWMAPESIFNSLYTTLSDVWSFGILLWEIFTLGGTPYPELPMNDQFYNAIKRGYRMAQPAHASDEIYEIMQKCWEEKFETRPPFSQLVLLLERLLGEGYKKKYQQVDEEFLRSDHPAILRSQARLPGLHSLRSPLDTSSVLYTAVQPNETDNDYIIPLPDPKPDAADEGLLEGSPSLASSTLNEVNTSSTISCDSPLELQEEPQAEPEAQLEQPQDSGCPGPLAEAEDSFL
T3 sequence (P35968 20-1356): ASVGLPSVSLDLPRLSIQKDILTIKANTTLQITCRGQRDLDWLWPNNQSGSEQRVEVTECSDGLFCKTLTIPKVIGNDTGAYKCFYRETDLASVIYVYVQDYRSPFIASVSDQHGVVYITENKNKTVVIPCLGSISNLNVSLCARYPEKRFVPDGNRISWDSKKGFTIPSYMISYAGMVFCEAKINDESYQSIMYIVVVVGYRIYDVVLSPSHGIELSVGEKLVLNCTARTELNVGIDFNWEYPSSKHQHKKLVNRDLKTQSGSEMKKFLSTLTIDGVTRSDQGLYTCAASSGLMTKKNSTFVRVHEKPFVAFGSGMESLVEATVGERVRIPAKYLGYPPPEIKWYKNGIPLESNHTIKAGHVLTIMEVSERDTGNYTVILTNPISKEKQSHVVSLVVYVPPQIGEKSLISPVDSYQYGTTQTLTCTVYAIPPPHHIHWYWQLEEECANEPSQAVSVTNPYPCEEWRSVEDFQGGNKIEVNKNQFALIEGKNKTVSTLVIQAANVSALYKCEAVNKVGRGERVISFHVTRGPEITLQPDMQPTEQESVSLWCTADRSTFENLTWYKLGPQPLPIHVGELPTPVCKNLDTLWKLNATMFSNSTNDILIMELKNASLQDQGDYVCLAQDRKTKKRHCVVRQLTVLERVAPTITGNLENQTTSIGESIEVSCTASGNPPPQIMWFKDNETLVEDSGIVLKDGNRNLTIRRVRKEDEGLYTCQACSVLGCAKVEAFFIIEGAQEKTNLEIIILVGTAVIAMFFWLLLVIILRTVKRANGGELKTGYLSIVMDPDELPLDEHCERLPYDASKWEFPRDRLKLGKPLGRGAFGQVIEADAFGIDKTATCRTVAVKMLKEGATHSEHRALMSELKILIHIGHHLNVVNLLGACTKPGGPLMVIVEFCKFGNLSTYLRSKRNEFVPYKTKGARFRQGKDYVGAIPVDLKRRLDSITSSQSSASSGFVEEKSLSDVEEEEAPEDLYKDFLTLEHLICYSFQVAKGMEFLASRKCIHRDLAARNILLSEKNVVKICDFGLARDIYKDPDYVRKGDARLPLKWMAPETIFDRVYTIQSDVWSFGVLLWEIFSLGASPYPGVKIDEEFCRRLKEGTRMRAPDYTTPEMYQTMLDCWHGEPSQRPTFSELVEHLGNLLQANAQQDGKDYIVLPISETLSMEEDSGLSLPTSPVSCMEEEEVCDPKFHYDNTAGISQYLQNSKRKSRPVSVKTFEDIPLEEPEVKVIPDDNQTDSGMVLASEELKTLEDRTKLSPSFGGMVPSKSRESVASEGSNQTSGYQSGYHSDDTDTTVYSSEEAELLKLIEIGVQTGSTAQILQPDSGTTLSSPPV
T1 sequence (P16234 24-1089): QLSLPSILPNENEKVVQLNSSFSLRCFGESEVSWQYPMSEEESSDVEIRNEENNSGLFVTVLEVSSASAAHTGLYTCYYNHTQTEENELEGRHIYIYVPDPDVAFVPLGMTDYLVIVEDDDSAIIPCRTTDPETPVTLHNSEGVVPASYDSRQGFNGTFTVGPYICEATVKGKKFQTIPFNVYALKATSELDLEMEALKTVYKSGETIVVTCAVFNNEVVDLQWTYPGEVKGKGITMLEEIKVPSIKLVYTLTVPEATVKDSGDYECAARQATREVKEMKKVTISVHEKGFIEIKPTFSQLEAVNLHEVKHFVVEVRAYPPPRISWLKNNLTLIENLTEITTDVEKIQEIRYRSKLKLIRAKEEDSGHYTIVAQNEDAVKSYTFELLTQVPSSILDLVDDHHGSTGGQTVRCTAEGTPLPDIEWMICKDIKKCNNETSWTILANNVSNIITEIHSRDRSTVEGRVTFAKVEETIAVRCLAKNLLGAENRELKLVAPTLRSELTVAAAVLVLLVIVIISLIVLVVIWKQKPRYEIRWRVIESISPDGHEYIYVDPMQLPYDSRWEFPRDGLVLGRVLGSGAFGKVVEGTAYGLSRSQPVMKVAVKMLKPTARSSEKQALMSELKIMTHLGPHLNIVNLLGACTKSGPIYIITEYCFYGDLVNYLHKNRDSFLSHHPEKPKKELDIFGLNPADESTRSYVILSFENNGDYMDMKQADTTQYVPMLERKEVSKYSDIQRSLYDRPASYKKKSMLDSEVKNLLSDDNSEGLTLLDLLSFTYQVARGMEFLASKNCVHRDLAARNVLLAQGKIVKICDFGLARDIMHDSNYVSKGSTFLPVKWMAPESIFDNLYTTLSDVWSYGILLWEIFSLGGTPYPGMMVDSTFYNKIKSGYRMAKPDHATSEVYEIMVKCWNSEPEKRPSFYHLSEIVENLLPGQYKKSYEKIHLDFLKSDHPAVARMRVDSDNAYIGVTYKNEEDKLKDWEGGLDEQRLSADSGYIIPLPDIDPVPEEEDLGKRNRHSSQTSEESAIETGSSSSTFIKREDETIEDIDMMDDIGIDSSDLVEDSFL

For `COc1cc2nccc(Oc3ccc(NC(=S)NC(=O)c4ccccc4C)cc3)c2cc1OC` [Example 614, N-{4-[(6,7-Dimethoxy-4-quinolyl)oxy]-phenyl}-N′-(2-methylbenzoyl)thiourea], the IC50 (PDGF-Ra) was < 10 nM, the IC50 (c-kit; 50 ng/ml h-SCF) was 434 nM and the inhibition in vivo at 30 mg/kg ([1]; in vivo, dose: 30 mg/kg, orally twice a day for 2 weeks, Wistar male rats) was 92%. The IC50 (human KDR) was 47 nM.

Compound `COc1cc2nccc(Oc3ccc(NC(=S)NC(=O)c4ccc([N+](=O)[O-])cc4)c(C)c3C)c2cc1OC` [Example 1081, N-{4-[(6,7-Dimethoxy-4-quinolyl)oxy]-2,3-dimethylphenyl}-N′-(4-nitrobenzoyl)thiourea] has an inhibition at 1 µM (c-kit; [2]) of 47% and an inhibition at 1 µM (PDGF-R) of 50%.

`CCCCCCCCCCCC(=O)NC(=S)Nc1ccc(Oc2ccnc3cc(OC)c(OC)cc23)cc1` [Example 1072, N-{4-[(6,7-Dimethoxy-4-quinolyl)oxy]phenyl}-N′-dodecanoylthiourea] was tested, and the inhibition at 1 µM (c-kit; [2]) was 18% and the inhibition at 1 µM (PDGF-R) was 34%.

Compound “N-{4-[(6,7-Dimethoxy-4-quinolyl)oxy]-2-fluorophenyl}-N′-(methylamino)urea [Example 611]” has an IC50 (c-kit; 50 ng/ml h-SCF) of 1070 nM and an IC50 (PDGF-R) of 95 nM.

`COc1cc2nccc(Oc3ccc(S(=O)(=O)CCOc4ccc(C)cc4)cc3)c2cc1OC` [Example 834, 4-[(6,7-Dimethoxy-4-quinolyl)oxy]phenyl [2-(4-methylphenoxy)ethyl]sulfone] gave an inhibition at 1 µM (c-kit; [2]) of 1% and an inhibition at 1 µM (PDGF-R) of 23%.

Work on `COc1ccc(C(=O)NC(=S)Nc2ccc(Oc3ccnc4cc(OC)c(OC)cc34)cc2C)cc1` [Example 1095, N-{4-[(6,7-Dimethoxy-4-quinolyl)oxy]-2-methylphenyl}-N′-(4-methoxybenzoyl)thiourea] yielded an inhibition at 1 µM (c-kit; [2]) of 25% and an inhibition at 1 µM (PDGF-R) of 20%.

With `COc1cc2nccc(Oc3ccc([S+]([O-])CCOc4ccc(F)cc4[N+](=O)[O-])cc3)c2cc1OC` (stereo not shown) [Example 839, {4-[(6,7-Dimethoxy-4-quinolyl)oxy]phenyl}[2-(4-fluoro-2-nitrophenoxy)ethyl] sulfoxide] the inhibition at 1 µM (c-kit; [2]) was 30% and the inhibition at 1 µM (PDGF-R) was 24%.

`COc1cccc(OCCS(=O)(=O)c2ccc(Oc3ccnc4cc(OC)c(OC)cc34)cc2)c1` [Example 830, 4-[(6,7-Dimethoxy-4-quinolyl)oxy]phenyl [2-(3-methoxyphenoxy)ethyl]sulfone] gave an inhibition at 1 µM (c-kit; [2]) of 10% and an inhibition at 1 µM (PDGF-R) of 23%.

Compound `COc1cc2nccc(Oc3ccc(NC(=O)Oc4ccccc4C)cc3)c2cc1OC` [Example 223, 2-Methylphenyl N-{4-[(6,7-dimethoxy-4-quinolyl)oxy]phenyl}carbamate] has an IC50 (c-kit; h-SCF 50 ng/ml) of 101 nM, an inhibition in vivo at 30 mg/kg [1] of 41% and an IC50 (human KDR) of 38 nM.

With `COc1ccc(C(=O)NC(=S)Nc2ccc(Oc3ccnc4cc(OC)c(OC)cc34)cc2F)c(OC)c1` [Example 1123, N-(2,4-Dimethoxybenzoyl)-N′-{4-[(6,7-dimethoxy-4-quinolyl)oxy]-2-fluorophenyl}thiourea] the IC50 (c-kit; h-SCF stimulation) was 961 nM and the inhibition at 1 µM (PDGF-R) was 43%.

`COc1cc2nccc(Oc3ccc(NC(=S)NC(=O)c4ccc(Cl)cc4Cl)c(C)c3C)c2cc1OC` [Example 1086, N-(2,4-Dichlorobenzoyl)-N′-{4-[(6,7-dimethoxy-4-quinolyl)oxy]-2,3-dimethylphenyl}thiourea] gave an inhibition at 1 µM (c-kit; [2]) of 19% and an inhibition at 1 µM (PDGF-R) of 48%.

In the case of `CCCCCCCCCCCCCC(=O)NC(=S)Nc1ccc(Oc2ccnc3cc(OC)c(OC)cc23)cc1` [Example 1073, N-{4-[(6,7-Dimethoxy-4-quinolyl)oxy]phenyl}-N′-tetradecanoylthiourea], the inhibition at 1 µM (c-kit; [2]) is reported as 20% and the inhibition at 1 µM (PDGF-R) is reported as 23%.

`COc1cc2nccc(Oc3ccc(NC(=S)NC(=O)c4ccc(C)cc4)c(C)c3)c2cc1OC` [Example 1096, N-{4-[(6,7-Dimethoxy-4-quinolyl)oxy]-2-methylphenyl}-N′-(4-methylbenzoyl)thiourea] gave an inhibition at 1 µM (c-kit; [2]) of 3% and an inhibition at 1 µM (PDGF-R) of 30%.

For `COc1cc2nccc(Oc3ccc(NC(=S)NC(=O)c4ccc([N+](=O)[O-])cc4)c(C)c3)c2cc1OC` [Example 1092, N-{4-[(6,7-Dimethoxy-4-quinolyl)oxy]-2-methylphenyl}-N′-(4-nitrobenzoyl)thiourea], the inhibition at 1 µM (c-kit; [2]) was 10% and the inhibition at 1 µM (PDGF-R) was 15%.

Work on `CCCCCCCCCCCC(=O)NC(=S)Nc1ccc(Oc2ccnc3cc(OC)c(OC)cc23)cc1F` [Example 1075, N-{4-[(6,7-Dimethoxy-4-quinolyl)oxy]-2-fluorophenyl}-N′-dodecanoylthiourea] yielded an inhibition at 1 µM (c-kit; [2]) of 31% and an inhibition at 1 µM (PDGF-R) of 17%.

For “{4-[(6,7-Dimethoxy-4-quinolyl)oxy]phenyl}[2-(3-methoxy-4-nitrophenoxy)ethyl] sulfoxide [Example 838]”, the “c-kit inhibition (%) at 1000 nM” value (c-kit; [2]) was “−(23) %” and the IC50 (PDGF-R; > means inhibition at indicated concentration not more than 50%, < not less than 50%) was 590 nM.

`COc1cc2nccc(Oc3ccc(S(=O)(=O)CCOc4ccccc4F)cc3)c2cc1OC` [Example 837, 4-[(6,7-Dimethoxy-4-quinolyl)oxy]phenyl [2-(2-fluorophenoxy)ethyl]sulfone] gave an inhibition at 1 µM (c-kit; [2]) of 19% and an inhibition at 1 µM (PDGF-R) of 10%.

With `COc1cc2nccc(Oc3ccc(S(=O)(=O)CCOc4ccc(F)cc4)cc3)c2cc1OC` [Example 829, 4-[(6,7-Dimethoxy-4-quinolyl)oxy]phenyl [2-(4-fluorophenoxy)ethyl]sulfone] the inhibition at 1 µM (c-kit; [2]) was 10% and the inhibition at 1 µM (PDGF-R) was 30%.

In the case of `COc1cc2nccc(Oc3ccc(S(=O)(=O)CCOc4cccc(Cl)c4)cc3)c2cc1OC` [Example 832, 2-(3-Chlorophenoxy)ethyl{4-[(6.7-dimethoxy-4-quinolyl)oxy]phenyl}sulfone], the inhibition at 1 µM (c-kit; [2]) is reported as 21% and the inhibition at 1 µM (PDGF-R) is reported as 35%.

`COc1cc2nccc(Oc3ccc(S(=O)(=O)CCOc4ccc(Cl)cc4Cl)cc3)c2cc1OC` [Example 831, 2-(2,4-Dichlorophenoxy)ethyl{4-[(6,7-dimethoxy-4-quinolyl)oxy]phenyl}sulfone] gave an inhibition at 1 µM (c-kit; [2]) of 19% and an inhibition at 1 µM (PDGF-R) of 50%.
